These results are taken from publication PMC11018007, “Synthesis, carbonic anhydrase inhibition studies and modelling investigations of phthalimide–hydantoin hybrids” (Journal of Enzyme Inhibition and Medicinal Chemistry, 2024).

Some results are limits rather than exact numbers.

One assay concerns the target T1, hCA VII (Homo sapiens, UniProt P43166).
T1 construct: gene CA7; in-house recombinant protein; construct not described here
Kind of assay: stopped-flow CO2 hydrase assay. It is filed as biochemical. The source says: stopped-flow CO2 hydrase assay on hCA VII

The next assay deals with T2, hCA IX (Homo sapiens, UniProt Q16790).
T2 construct: gene CA9
The assay is described as follows: stopped-flow CO2 hydrase assay. It is filed as biochemical. The source says: stopped-flow CO2 hydrase assay on hCA IX

A short description of assay [1]: stopped-flow CO2 hydrase assay. It counts as biochemical, Homo sapiens. The following applies: read-out: KI (μM) ^a / hCA I. The source says:
(§1) stopped-flow CO2 hydrase assay on hCA II

The next assay deals with T3, hCA I (Homo sapiens, UniProt P00915).
T3 construct: gene CA1; recombinant from plasmid pACA/hCA I, E. coli BL21 (DE3)
T3 sequence (P00915 2-261): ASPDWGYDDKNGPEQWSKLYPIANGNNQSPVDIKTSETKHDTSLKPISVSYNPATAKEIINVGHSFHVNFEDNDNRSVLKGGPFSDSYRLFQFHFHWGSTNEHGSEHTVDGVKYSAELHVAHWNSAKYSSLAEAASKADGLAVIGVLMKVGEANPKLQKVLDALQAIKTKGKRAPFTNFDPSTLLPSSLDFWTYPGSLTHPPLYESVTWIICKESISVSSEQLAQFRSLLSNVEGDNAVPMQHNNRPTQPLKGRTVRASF
The assay is described as follows: stopped-flow CO2 hydrase assay. It counts as biochemical. The source says:
stopped-flow CO2 hydrase assay on hCA I

The target in another assay is T4, hCA VI (Homo sapiens, UniProt P23280).
T4 construct: gene CA6; secreted isoform; in-house recombinant protein; construct not described here
T4 sequence (P23280 18-308): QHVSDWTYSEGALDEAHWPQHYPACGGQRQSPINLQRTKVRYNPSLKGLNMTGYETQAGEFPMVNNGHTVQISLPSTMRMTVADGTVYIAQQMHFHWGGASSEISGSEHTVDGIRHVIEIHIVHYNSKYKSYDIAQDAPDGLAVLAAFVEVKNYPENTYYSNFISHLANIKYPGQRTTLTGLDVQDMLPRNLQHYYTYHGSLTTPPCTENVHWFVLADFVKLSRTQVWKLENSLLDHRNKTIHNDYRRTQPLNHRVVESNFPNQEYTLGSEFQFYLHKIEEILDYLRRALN
The assay is described as follows: stopped-flow CO2 hydrase assay. It is filed as biochemical. The text has this: stopped-flow CO2 hydrase assay on hCA VI

The target of another assay is T5, hCA II (Homo sapiens, UniProt P00918).
T5 construct: gene CA2; recombinant from plasmid pACA/hCA II, E. coli BL21 (DE3)
Kind of assay: stopped-flow CO2 hydrase assay. It is filed as biochemical.
Text: as §1

T1 sequence (P43166 whole entry): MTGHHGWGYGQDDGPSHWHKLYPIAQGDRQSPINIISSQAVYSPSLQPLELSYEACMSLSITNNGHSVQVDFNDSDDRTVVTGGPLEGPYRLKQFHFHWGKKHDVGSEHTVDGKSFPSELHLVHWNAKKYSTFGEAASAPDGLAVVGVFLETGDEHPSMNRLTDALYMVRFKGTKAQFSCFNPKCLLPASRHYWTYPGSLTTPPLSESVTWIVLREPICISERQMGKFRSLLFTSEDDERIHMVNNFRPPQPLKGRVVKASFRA

As to `O=C1CN(N2C(=O)c3ccccc3C2=O)C(=O)N1Cc1ccccc1` [6a, 2-(3-Benzyl-2,4-dioxoimidazolidin-1-yl)isoindoline-1,3-dione], the Ki was 33.7 µM at hCA VII; 3.73 µM at hCA IX; more than 100 µM in assay [1]; more than 100 µM at hCA I; 57.7 µM on hCA VI.

`O=C1CN(N2C(=O)c3ccccc3C2=O)C(=O)N1` [3a, Potassium 3-(1,3-dioxoisoindolin-2-yl)-2,5-dioxoimidazolidin-1-ide]: the Ki on hCA VII is 0.075 µM; at hCA IX it was 0.331 µM; on hCA II it was 6.94 µM; on hCA I, more than 100 µM; at hCA VI, 0.405 µM.

With `O=C1CN(N2C(=O)c3ccc([N+](=O)[O-])cc3C2=O)C(=O)N1` [3b, Potassium 3-(5-nitro-1,3-dioxoisoindolin-2-yl)-2,5-dioxoimidazolidin-1-ide], the Ki is 0.163 µM at hCA VII; 0.488 µM on hCA IX; 8.99 µM on hCA II; more than 100 µM at hCA I; 0.701 µM on hCA VI.

In the case of `O=C1CN(N2C(=O)c3ccc([N+](=O)[O-])cc3C2=O)C(=O)N1Cc1ccccc1` [6b, 2-(3-Benzyl-2,4-dioxoimidazolidin-1-yl)-5-nitroisoindoline-1,3-dione], the Ki is 45.9 µM on hCA VII; 2.73 µM at hCA IX; more than 100 µM in assay [1]; more than 100 µM on hCA I; 40.2 µM on hCA VI.

In the case of `N#Cc1ccc(CN2C(=O)CN(N3C(=O)c4ccccc4C3=O)C2=O)cc1` [6e, 4-((3-(1,3-Dioxoisoindolin-2-yl)-2,5-dioxoimidazolidin-1-yl)methyl)benzonitrile], the Ki on hCA VII was 59.1 µM; on hCA IX, 4.82 µM; in assay [1] it was more than 100 µM; on hCA I, more than 100 µM; at hCA VI, 48.5 µM.

Turning to `O=C1CN(NC(=O)c2cc([N+](=O)[O-])ccc2C(=O)O)C(=O)N1` [compound 5, 2-((2,4-Dioxoimidazolidin-1-yl)carbamoyl)-4-nitrobenzoic acid], the Ki at hCA VII is 13.9 µM; at hCA IX, 4.06 µM; on hCA II, 58.6 µM; on hCA I it was more than 100 µM; on hCA VI, 10.5 µM.

As to `O=C1CN(N2C(=O)c3ccc([N+](=O)[O-])cc3C2=O)C(=O)N1Cc1ccc([N+](=O)[O-])cc1` [6d, 5-Nitro-2-(3-(4-nitrobenzyl)-2,4-dioxoimidazolidin-1-yl)isoindoline-1,3-dione], the Ki on hCA VII is 26.3 µM; at hCA IX, 4.58 µM; in assay [1] it was more than 100 µM; on hCA I, more than 100 µM; at hCA VI it was 49.8 µM.

Consider `N#Cc1ccc(CN2C(=O)CN(N3C(=O)c4ccc([N+](=O)[O-])cc4C3=O)C2=O)cc1` [6f, 4-((3-(5-Nitro-1,3-dioxoisoindolin-2-yl)-2,5-dioxoimidazolidin-1-yl)methyl)benzonitrile], for which the Ki at hCA VII was 50.5 µM; at hCA IX, 6.49 µM; in assay [1], more than 100 µM; on hCA I, more than 100 µM; on hCA VI, 64.3 µM.

On to `O=C1CN(N2C(=O)c3ccccc3C2=O)C(=O)N1Cc1ccc([N+](=O)[O-])cc1` [6c, 2-(3-(4-Nitrobenzyl)-2,4-dioxoimidazolidin-1-yl)isoindoline-1,3-dione], for which the Ki is 37.6 µM at hCA VII; 5.68 µM on hCA IX; more than 100 µM in assay [1]; more than 100 µM on hCA I; 50.2 µM at hCA VI.
